# What was measured:
# [1] = test system: skin phosphorylated MCM2 (pMCM2; a CDC7 substrate); experiment: pMCM2 IHC (H-score) in skin punch biopsies; type: in vivo, human
# Source text: The primary objectives were to evaluate safety, tolerability, and to identify the MTD of TAK-931. Secondary objectives were to characterize the pharmacokinetics of TAK-931, assess pharmacodynamic effects of TAK-931 by measuring basal and postdose levels of skin phosphorylated MCM2 (pMCM2; a CDC7 substrate), and assess preliminary clinical activity of TAK-931. An exploratory objective was to assess the pharmacodynamic effect of TAK-931 in fresh tumor biopsies after multiple doses of TAK-931 that were considered to have biological effect.
# (§1) DLTs included: cycle 1 grade ≥3 hematologic and non-hematologic events or grade 2 non-hematologic events considered by the investigator to be TAK-931-related, grade 2 ejection fraction decrease, >2 weeks delay in initiating cycle 2 (1 week for schedules D and E), and >50% TAK-931 dose reduction in cycle 1 due to treatment-related adverse events (AEs; see Supplementary Materials and Methods for full DLT criteria). Toxicity was evaluated by NCI Common Terminology Criteria for Adverse Events (version 4.03). Tumor response was measured using the RECIST (version 1.1) ([16]). Serial blood samples for pharmacokinetic analysis were collected during cycle 1 on days 1 and 7 (schedule B), 1 and 8 (schedules A and D), or 1 and 9 (schedule E). Pharmacokinetic parameters were estimated from concentration–time profiles using noncompartmental methods with WinNonlin® Phoenix™ version 8.1 (Certara, Princeton, NJ). pMCM2 was detected semiquantitatively by IHC of histologic sections of formalin-fixed, paraffin-embedded skin and tumor biopsies using anti-pMCM2 (3378-1, Epitomics Inc.; ref. [15]). Quantitative image analysis determined pMCM2 levels as “histologic score nuclei (H-score).” Skin punch biopsies (2–4 mm) were obtained during screening or predose on cycle 1, day 1 and for patients in schedules A, B, and D, postdose on any drug dosing day after 3 consecutive dosing days in cycle 1. A postdose skin biopsy was obtained on day 9 in schedule E. Fresh tumor biopsy pairs were collected predose and postdose on any dosing day after the completion of 3 consecutive dosing days in cycle 1 from patients who received doses considered to have biological effect.
# (§2) The safety population included patients who received ≥1 dose of TAK-931. The pharmacodynamic-evaluable population comprised patients from the safety population with a baseline and ≥1 additional postbaseline biopsy sample that was suitable for pMCM2 analysis. The pharmacokinetic-evaluable population included patients with sufficient dosing and TAK-931 concentration–time data to estimate pharmacokinetic parameters. The response-evaluable population included patients in the safety population with measurable disease at baseline and ≥1 postbaseline response assessment.
# advanced solid tumors = experiment: Tumor response by RECIST version 1.1; type: in vivo, human; set-up: key to Best response, individual patient: PD: progressive disease; PR: partial response; SD: stable disease; settings: for Duration of SD / Duration PR maintained: 1 patient
# Protocol: as §1, §2
# [2] = animal toxicology studies; used as escalation limit; cited from earlier work
smiles,measurement,setting,value
"Cc1[nH]ncc1-c1cc2nc([C@@H]3CC4CCN3CC4)[nH]c(=O)c2s1 [TAK-931, simurosertib]","Skin pMCM2 Mean H-score (StDev), Cycle 1, day 8","[1]; Schedule A (30 mg), n = 3, baseline mean H-score 18.47 (8.45)",10.93 (6.57)
same,"% of pMCM2 inhibition (Change from baseline), skin","[1]; Schedule A (30 mg), n = 3, cycle 1, day 8",40.8%
same,"Skin pMCM2 Mean H-score (StDev), Cycle 1, day 8","[1]; Schedule A (40 mg), n = 3, baseline mean H-score 19.53 (3.78)",12.87 (12.19)
same,"% of pMCM2 inhibition (Change from baseline), skin","[1]; Schedule A (40 mg), n = 3, cycle 1, day 8",34.1%
same,"Skin pMCM2 Mean H-score (StDev), Cycle 1, day 8","[1]; Schedule A (50 mg), n = 14, baseline mean H-score 10.50 (5.85)",3.76 (5.42)
same,"% of pMCM2 inhibition (Change from baseline), skin","[1]; Schedule A (50 mg), n = 14, cycle 1, day 8",64.2%
same,"Skin pMCM2 Mean H-score (StDev), Cycle 1, day 8","[1]; Schedule A (60 mg), n = 3, baseline mean H-score 10.93 (1.94)",1.00 (0.60)
same,"% of pMCM2 inhibition (Change from baseline), skin","[1]; Schedule A (60 mg), n = 3, cycle 1, day 8",90.9%
same,"Skin pMCM2 Mean H-score (StDev), Cycle 1, day 8","[1]; Schedule B (60 mg), n = 3, baseline mean H-score 4.40 (2.96)",0.67 (0.46)
same,"Skin pMCM2 Mean H-score (StDev), Cycle 1, day 8","[1]; Schedule B (80 mg), n = 9, baseline mean H-score 12.72 (2.02)",3.54 (6.19)
same,"% of pMCM2 inhibition (Change from baseline), skin","[1]; Schedule B (80 mg), n = 9, cycle 1, day 8",72.2%
same,"% of pMCM2 inhibition (Change from baseline), skin","[1]; Schedule D (20 mg), baseline n = 6, cycle 1, day 8 n = 4",77.1%
same,"Skin pMCM2 Mean H-score (StDev), Cycle 1, day 8","[1]; Schedule D (20 mg), baseline n = 6, cycle 1, day 8 n = 4, baseline mean H-score 22.05 (24.52)",5.05 (2.90)
same,"Skin pMCM2 Mean H-score (StDev), Cycle 1, day 8","[1]; Schedule D (30 mg), n = 6, baseline mean H-score 33.32 (23.43)",6.43 (5.17)
same,"% of pMCM2 inhibition (Change from baseline), skin","[1]; Schedule D (30 mg), n = 6, cycle 1, day 8",80.7%
same,Duration of SD,"advanced solid tumors; cervical cancer, schedule A (50 mg)",11.33 months
same,Duration of SD,"advanced solid tumors; cervical cancer, schedule D (40 mg)",15.24 months
same,Duration PR maintained,"advanced solid tumors; cervical squamous cell cancer, schedule A 60 mg",2.2 months
same,Duration PR maintained,"advanced solid tumors; duodenal squamous cell cancer, schedule A 30 mg",2.1 months
same,Duration PR maintained,"advanced solid tumors; esophageal cancer, schedule B 100 mg",4.2 months
same,Duration PR maintained,"advanced solid tumors; esophageal squamous cell cancer, schedule A 50 mg",2.7 months
same,Duration of SD,"advanced solid tumors; thymic cancer, schedule A (50 mg)",10.45 months
same,CR (complete response) as best response,advanced solid tumors; Schedule A n = 24,0 n (%) [95% CI]
same,CR (complete response) as best response,advanced solid tumors; Schedule B n = 23,0 n (%) [95% CI]
same,CR (complete response) as best response,advanced solid tumors; Schedule D n = 17,0 n (%) [95% CI]
same,"ORR (overall response rate), investigator's assessment",advanced solid tumors; Schedule D n = 17,0 n (%) [95% CI]
same,PR (partial response) as best response,advanced solid tumors; Schedule D n = 17,0 n (%) [95% CI]
same,CR (complete response) as best response,advanced solid tumors; Schedule E n = 11,0 n (%) [95% CI]
same,"ORR (overall response rate), investigator's assessment",advanced solid tumors; Schedule E n = 11,0 n (%) [95% CI]
same,PR (partial response) as best response,advanced solid tumors; Schedule E n = 11,0 n (%) [95% CI]
same,Patients achieving a partial response,advanced solid tumors; overall,5 patients
same,Patients with best response of SD,advanced solid tumors; overall,28 patients
same,"Share of patients with SD or PR having esophageal, thymic, or cervical cancer",advanced solid tumors; overall,39%
same,Median progression-free survival,"advanced solid tumors; overall, 95% confidence interval, 1.94–3.06",2.2 months
same,Overall response rate (ORR),advanced solid tumors; schedule A,13%
same,"Best response, individual patient","advanced solid tumors; schedule A, 30 mg, cancer type Duodenal",PR
same,"Best response, individual patient","advanced solid tumors; schedule A, 30 mg, cancer type Pancreatic",SD
same,"Best response, individual patient","advanced solid tumors; schedule A, 30 mg, cancer type Rectal",PD
same,"Best response, individual patient","advanced solid tumors; schedule A, 40 mg, cancer type Breast",PD
same,"Best response, individual patient","advanced solid tumors; schedule A, 40 mg, cancer type Rectal",PD
same,"Best response, individual patient","advanced solid tumors; schedule A, 40 mg, cancer type Unknown",SD
same,"Best response, individual patient","advanced solid tumors; schedule A, 60 mg, cancer type Cervical",PR
same,"Best response, individual patient","advanced solid tumors; schedule A, 60 mg, cancer type Ovarian",SD
same,"Best response, individual patient","advanced solid tumors; schedule A, 60 mg, cancer type Pancreatic",SD
same,Overall response rate (ORR),advanced solid tumors; schedule B,9%
same,Cmax threshold for off-target adverse effects (hypotension),[2],0.8 µg/mL

# From publication PMC10035389, “Safety, Tolerability, and Pharmacokinetics of TAK-931, a Cell Division Cycle 7 Inhibitor, in Patients with Advanced Solid Tumors: A Phase I First-in-Human Study” (Cancer Research Communications, 2022)
